Test results published in US11306092B2, “Amino indole compounds useful as TLR inhibitors” (BRISTOL-MYERS SQUIBB COMPANY, priority 2017, dated 2022).

Legend:
Assay type in all cases: cell-based
human TLR8 = molecular target: T1, human TLR8 (Homo sapiens, UniProt Q9NR97); test: TLR8 inhibition reporter assay (HEK-Blue SEAP reporter); details: HEK-Blue cells overexpressing human TLR8; R848 15.9 μM; 22 hour incubation
T1 construct: host or cells: HEK-Blue cells
T1 sequence (Q9NR97 27-1041): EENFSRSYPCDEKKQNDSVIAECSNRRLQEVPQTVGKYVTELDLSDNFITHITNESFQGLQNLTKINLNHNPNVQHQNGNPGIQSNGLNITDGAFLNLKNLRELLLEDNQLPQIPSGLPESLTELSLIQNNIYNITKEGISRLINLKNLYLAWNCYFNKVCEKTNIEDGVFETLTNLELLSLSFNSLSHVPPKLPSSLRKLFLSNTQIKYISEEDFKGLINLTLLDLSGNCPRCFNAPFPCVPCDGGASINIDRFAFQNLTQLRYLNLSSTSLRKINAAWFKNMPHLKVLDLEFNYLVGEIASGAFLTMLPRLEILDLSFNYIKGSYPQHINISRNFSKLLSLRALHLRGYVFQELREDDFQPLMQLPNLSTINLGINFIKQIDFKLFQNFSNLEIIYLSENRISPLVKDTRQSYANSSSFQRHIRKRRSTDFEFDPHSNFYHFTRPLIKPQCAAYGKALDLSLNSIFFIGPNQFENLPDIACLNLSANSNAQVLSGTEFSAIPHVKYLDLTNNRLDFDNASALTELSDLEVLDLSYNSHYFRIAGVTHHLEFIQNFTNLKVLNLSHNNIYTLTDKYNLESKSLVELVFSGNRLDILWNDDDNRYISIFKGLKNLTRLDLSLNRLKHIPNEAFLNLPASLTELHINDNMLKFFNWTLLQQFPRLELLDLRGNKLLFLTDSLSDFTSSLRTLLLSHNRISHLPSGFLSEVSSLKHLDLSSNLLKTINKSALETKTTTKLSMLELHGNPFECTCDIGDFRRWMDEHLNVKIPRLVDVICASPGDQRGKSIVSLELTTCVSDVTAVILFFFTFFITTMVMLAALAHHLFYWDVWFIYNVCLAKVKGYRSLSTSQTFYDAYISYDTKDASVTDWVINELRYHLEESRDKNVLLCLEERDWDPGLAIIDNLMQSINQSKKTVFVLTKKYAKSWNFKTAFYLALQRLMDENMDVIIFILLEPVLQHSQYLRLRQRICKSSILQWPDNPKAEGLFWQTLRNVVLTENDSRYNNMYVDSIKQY
Outline: (§1)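 Dose–response from 0.05 nM to 50 μM was run in HEK-Blue human TLR7, TLR8 and TLR9 reporter cells. After 30 min at room temperature with compound, ligand was added (TLR7 gardiquimod 7.5 μM; TLR8 R848 15.9 μM; TLR9 ODN2006 5 nM) and SEAP measured next day, at 22 h.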

human TLR7 = molecular target: T2, human TLR7 (Homo sapiens, UniProt Q9NYK1); test: TLR7 inhibition reporter assay (HEK-Blue SEAP reporter); details: HEK-Blue cells overexpressing human TLR7; gardiquimod 7.5 μM; 22 hour incubation
T2 construct: host or cells: HEK-Blue cells
T2 sequence (Q9NYK1 27-1049): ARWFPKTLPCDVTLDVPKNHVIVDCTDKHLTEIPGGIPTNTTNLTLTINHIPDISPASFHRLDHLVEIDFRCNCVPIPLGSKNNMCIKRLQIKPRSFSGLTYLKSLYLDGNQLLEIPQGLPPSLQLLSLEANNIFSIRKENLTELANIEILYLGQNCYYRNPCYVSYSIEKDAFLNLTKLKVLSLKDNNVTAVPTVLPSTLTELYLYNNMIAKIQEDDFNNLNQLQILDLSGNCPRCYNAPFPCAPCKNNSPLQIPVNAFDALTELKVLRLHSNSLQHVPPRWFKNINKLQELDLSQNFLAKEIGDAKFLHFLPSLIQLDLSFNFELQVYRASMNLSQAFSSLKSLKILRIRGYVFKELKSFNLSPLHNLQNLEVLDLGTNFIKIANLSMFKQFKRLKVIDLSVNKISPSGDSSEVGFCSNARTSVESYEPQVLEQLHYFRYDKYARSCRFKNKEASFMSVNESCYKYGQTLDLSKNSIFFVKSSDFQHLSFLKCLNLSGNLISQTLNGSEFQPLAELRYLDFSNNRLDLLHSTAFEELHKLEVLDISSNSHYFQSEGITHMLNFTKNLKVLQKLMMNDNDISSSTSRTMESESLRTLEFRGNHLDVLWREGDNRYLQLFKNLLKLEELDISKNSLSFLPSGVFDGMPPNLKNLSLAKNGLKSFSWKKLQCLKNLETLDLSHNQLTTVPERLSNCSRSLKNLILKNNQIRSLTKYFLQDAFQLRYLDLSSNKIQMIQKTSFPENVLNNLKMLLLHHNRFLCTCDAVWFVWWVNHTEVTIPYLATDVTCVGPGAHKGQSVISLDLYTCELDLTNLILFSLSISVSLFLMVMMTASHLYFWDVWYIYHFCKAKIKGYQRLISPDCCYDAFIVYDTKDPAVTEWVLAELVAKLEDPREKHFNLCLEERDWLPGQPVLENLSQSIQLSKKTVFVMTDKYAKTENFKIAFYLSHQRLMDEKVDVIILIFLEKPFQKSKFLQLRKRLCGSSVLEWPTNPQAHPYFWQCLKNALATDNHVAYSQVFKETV
Outline: as §1

human TLR9 = molecular target: T3, human TLR9 (Homo sapiens, UniProt Q9NR96); test: TLR9 inhibition reporter assay (HEK-Blue SEAP reporter); details: HEK-Blue cells overexpressing human TLR9; ODN2006 5 nM; 22 hour incubation
T3 construct: host or cells: HEK-Blue cells
T3 sequence (Q9NR96 26-1032): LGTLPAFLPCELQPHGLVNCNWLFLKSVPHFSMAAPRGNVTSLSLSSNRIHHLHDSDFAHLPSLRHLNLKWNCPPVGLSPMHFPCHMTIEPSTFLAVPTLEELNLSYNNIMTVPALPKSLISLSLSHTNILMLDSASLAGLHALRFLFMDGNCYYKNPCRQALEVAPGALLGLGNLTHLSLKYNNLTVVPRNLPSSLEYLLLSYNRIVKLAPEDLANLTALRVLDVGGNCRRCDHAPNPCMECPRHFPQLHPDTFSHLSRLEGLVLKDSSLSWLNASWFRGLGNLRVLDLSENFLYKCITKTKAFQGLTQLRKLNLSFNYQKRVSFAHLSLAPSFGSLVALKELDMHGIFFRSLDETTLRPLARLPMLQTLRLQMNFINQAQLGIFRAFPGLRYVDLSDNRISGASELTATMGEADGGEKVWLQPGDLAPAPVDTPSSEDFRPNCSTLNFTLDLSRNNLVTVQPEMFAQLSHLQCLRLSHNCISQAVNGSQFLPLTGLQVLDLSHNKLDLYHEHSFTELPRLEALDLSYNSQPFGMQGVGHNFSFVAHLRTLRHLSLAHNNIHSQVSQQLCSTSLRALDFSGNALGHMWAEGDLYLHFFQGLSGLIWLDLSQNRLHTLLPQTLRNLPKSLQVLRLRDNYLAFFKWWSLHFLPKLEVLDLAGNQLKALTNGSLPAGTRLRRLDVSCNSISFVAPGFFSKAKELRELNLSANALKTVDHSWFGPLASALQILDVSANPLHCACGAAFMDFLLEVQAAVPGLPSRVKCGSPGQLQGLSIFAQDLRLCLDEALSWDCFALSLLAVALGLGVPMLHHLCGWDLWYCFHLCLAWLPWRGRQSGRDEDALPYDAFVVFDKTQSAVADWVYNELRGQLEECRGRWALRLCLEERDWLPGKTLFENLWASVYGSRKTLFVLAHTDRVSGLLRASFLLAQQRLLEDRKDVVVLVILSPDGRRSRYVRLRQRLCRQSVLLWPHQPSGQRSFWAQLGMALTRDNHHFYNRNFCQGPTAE
Outline: as §1

SMILES	IC50 (human TLR8) [µM]	IC50 (human TLR7) [µM]	IC50 (human TLR9) [µM]
COc1ccc(-c2[nH]c3ccc(NC(=O)[C@@H]4CCCC[C@@H]4N)cc3c2C(C)C)cc1OC [Example 21, (1R,2S)-2-amino-N-(2-(3,4-dimethoxyphenyl)-3-isopropyl-1H-indol-5-yl)cyclohexane-1-carboxamide]	0.075	0.128	1.39
CCc1c(-c2ccc(OC)c(OC)c2)[nH]c2cc(C)c(N3CCC4(CC3)CCN(C(C)C)CC4)cc12 [Example 186, 3-(2-(3,4-dimethoxyphenyl)-3-ethyl-6-methyl-1H-indol-5-yl)-9-isopropyl-3,9-diazaspiro[5.5]undecane]	1.59	1.21	2.85
COc1ccc(-c2[nH]c3ccc(N4CCN(C5CCN(CC(C)C)CC5)CC4)cc3c2C)cc1OC [Example 170, 2-(3,4-dimethoxyphenyl)-5-(4-(1-isobutylpiperidin-4-yl)piperazin-1-yl)-3-methyl-1H-indole]	48.4	19.1	0.465
CCc1c(-c2ccnc3[nH]ncc23)[nH]c2ccc(N3CCC(OC4CCN(C(C)C)CC4)CC3)cc12 [Example 185, 4-(3-ethyl-5-(4-((1-isopropylpiperidin-4-yl)oxy)piperidin-1-yl)-1H-indol-2-yl)-1H-pyrazolo[3,4-b]pyridine]	18.6	15	1.41
CCc1c(-c2cc(OC)nc(OC)c2)[nH]c2ccc(N3CCNCC3)cc12 [Example 129, 2-(2,6-dimethoxypyridin-4-yl)-3-ethyl-5-(piperazin-1-yl)-1H-indole]	0.022	0.075	3.32
CCN1CCN(C2CCN(c3ccc4[nH]c(-c5ccc(OC)c(OC)c5)c(C(C)C)c4c3)CC2)CC1 [Example 78, 2-(3,4-dimethoxyphenyl)-5-(4-(4-ethylpiperazin-1-yl)piperidin-1-yl)-3-isopropyl-1H-indole]	0.014	0.05	0.929
COc1ccc(-c2[nH]c3ccc(N4CCC(C5CCN(CCC(F)(F)F)CC5)CC4)cc3c2C(C)C)cc1OC [Example 97, 2-(3,4-dimethoxyphenyl)-3-isopropyl-5-(1′-(3,3,3-trifluoropropyl)-[4,4′-bipiperidin]-1-yl)-1H-indole]	1.91	0.862	6.61
COc1ccc(-c2[nH]c3ccc(N4CCN(C5CCN(C)CC5)CC4)cc3c2C)cc1OC [Example 149, 2-(3,4-dimethoxyphenyl)-3-methyl-5-(4-(1-methylpiperidin-4-yl)piperazin-1-yl)-1H-indole]	0.062	0.681	0.727
Cc1c(-c2ccnc3[nH]ccc23)[nH]c2ccc(N3CCN(C4CCN(CC(C)C)CC4)CC3)cc12 [Example 158, 4-(5-(4-(1-isobutylpiperidin-4-yl)piperazin-1-yl)-3-methyl-H-indol-2-yl)-1H-pyrrolo[2,3-b]pyridine]	45.4	12.5	0.198
COc1ccc(-c2[nH]c3ccc(N4CCC(N5CC(C)OC(C)C5)CC4)cc3c2C(C)C)cc1OC (stereo not drawn) [Example 80, 4-(1-(2-(3,4-dimethoxyphenyl)-3-isopropyl-H-indol-5-yl)piperidin-4-yl)-2,6-dimethylmorpholine]	0.019	0.13	5.79
COc1ccc(-c2[nH]c3ccc(N4CCC(NCCCN(C)C)CC4)cc3c2C(C)C)cc1OC [Example 77, N1-(1-(2-(3,4-dimethoxyphenyl)-3-isopropyl-H-indol-5-yl)piperidin-4-yl)-N3,N3-dimethylpropane-1,3-diamine]	0.0096	0.061	1.98
COc1ccc(-c2[nH]c3ccc(N4CCC(N5CCN(c6ccncc6)CC5)CC4)cc3c2C(C)C)cc1OC [Example 94, 2-(3,4-dimethoxyphenyl)-3-isopropyl-5-(4-(4-(pyridin-4-yl)piperazin-1-yl)piperidin-1-yl)-1H-indole]	0.0035	0.033	0.816
